Test results taken from the supplement of paper PMC10307832.

Assays:
Experiment in all cases: relative viability (nuclei count vs DMSO), 5 days (fraction); higher = more cells survive
[1] = compound: COc1ccc(-c2ccc3c(N4CCOC[C@@H]4C)nc(N4CCOC[C@@H]4C)nc3n2)cc1CO [AZD8055] + CCNC(=O)c1noc(-c2cc(C(C)C)c(O)cc2O)c1-c1ccc(CN2CCOCC2)cc1 [Luminespib] (partner 0.01 µM)
Method in brief: (§1)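 Lung cancer cell lines in 1536-well plates were dosed by pin tool the day after seeding, either with one drug alone or with a fixed anchor-drug dose plus five library-drug doses (not always all listed) in √10 steps. After 5 days, cells were fixed and their nuclei stained in one step (final 0.05% Triton X-100, 1% formaldehyde, 1 ug/ml Hoechst), then counted on 4× images. Relative viability is the nuclei count in treated wells divided by that in vehicle wells. Values are medians of duplicate plates.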

[2] = compound: COc1ccc(-c2ccc3c(N4CCOC[C@@H]4C)nc(N4CCOC[C@@H]4C)nc3n2)cc1CO [AZD8055] + CS(=O)(=O)CCNCc1ccc(-c2ccc3ncnc(Nc4ccc(OCc5cccc(F)c5)c(Cl)c4)c3c2)o1 [Lapatinib] (partner 2 µM)
Method in brief: as §1

[3] = compound: COc1ccc(-c2ccc3c(N4CCOC[C@@H]4C)nc(N4CCOC[C@@H]4C)nc3n2)cc1CO [AZD8055] + Nc1ncn([C@H]2C[C@H](O)[C@@H](CO)O2)c(=O)n1 [Decitabine] (partner 2 µM)
Method in brief: as §1

[4] = compound: COc1ccc(-c2ccc3c(N4CCOC[C@@H]4C)nc(N4CCOC[C@@H]4C)nc3n2)cc1CO [AZD8055] + O=C(c1cc(Cc2n[nH]c(=O)c3ccccc23)ccc1F)N1CCN(C(=O)C2CC2)CC1 [Olaparib] (partner 8 µM)
Method in brief: as §1

Cell Line	relative viability ([1]; first compound 0.01 µM)	relative viability ([1]; first compound 0.03162 µM)	relative viability ([1]; first compound 0.1 µM)	relative viability ([1]; first compound 0.3162 µM)	relative viability ([1]; first compound 1 µM)	relative viability ([2]; first compound 0.01 µM)	relative viability ([2]; first compound 0.03162 µM)	relative viability ([2]; first compound 0.1 µM)	relative viability ([2]; first compound 0.3162 µM)	relative viability ([2]; first compound 1 µM)	relative viability ([3]; first compound 0.01 µM)	relative viability ([3]; first compound 0.03162 µM)	relative viability ([3]; first compound 0.1 µM)	relative viability ([3]; first compound 0.3162 µM)	relative viability ([3]; first compound 1 µM)	relative viability ([4]; first compound 0.01 µM)	relative viability ([4]; first compound 0.03162 µM)	relative viability ([4]; first compound 0.1 µM)	relative viability ([4]; first compound 0.3162 µM)	relative viability ([4]; first compound 1 µM)
H3255	0.879	0.804	0.845	0.382	0.381	0.228	0.209	0.227	0.212	0.229	0.535	0.568	0.48	0.316	0.281	0.627	0.606	0.516	0.326	0.36
LXF-289	0.715	0.599	0.623	0.309	0.32	0.939	0.903	0.846	0.804	0.708	0.397	0.317	0.369	0.343	0.356	1.07	1.01	0.928	0.641	0.57
UMC-11	1	0.659	0.477	0.229	0.268	0.832	0.573	0.578	0.276	0.282	0.575	0.472	0.492	0.317	0.364	0.376	0.323	0.335	0.223	0.269
LC-2-ad	1.25	0.969	1.03	0.537	0.548	1.1	0.987	0.924	0.683	0.456	0.911	0.729	0.788	0.835	0.67	0.748	0.778	0.759	0.835	0.704
SK-MES-1	0.371	0.503	0.185	0.182	0.213	0.444	0.387	0.371	0.274	0.318	0.395	0.34	0.333	0.269	0.246	0.748	0.484	0.328	0.208	0.262
A-427	1.3	0.832	0.817	0.482	0.581	1.12	1.03	0.865	0.665	0.546	0.552	0.491	0.494	0.415	0.389	0.718	0.695	0.611	0.529	0.431
NCI-H322M	0.797	0.597	0.357	0.348	0.289	0.536	0.551	0.51	0.5	0.466	0.71	0.601	0.617	0.555	0.588	0.806	0.847	0.734	0.731	0.474
NCI-H1975	0.2	0.155	0.186	0.149	0.147	1.04	0.601	0.468	0.273	0.251	0.458	0.371	0.312	0.238	0.237	0.976	0.677	0.464	0.221	0.189
